For this assay, the target named is T1, Ba/F3 cell EGFR Exon20 ins NPH (Homo sapiens, UniProt P00533, INS773NPH).
T1 construct: expressed in transfected cells; host or cells: Ba/F3
The assay is described as follows: Ba/F3 cell proliferation suppression, EGFR Exon20 ins NPH. In kind it is cell-based. The following applies: GI50 class; Ba/F3 cell line with NPH inserted at Exon20 of EGFR; 72 hours. The method, boiled down:
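After 72 h compound exposure (twelve 3-fold steps, 0.3 nM–50 um final), live cells were measured by CellTiter-Glo luminescence and growth expressed as % of control to derive GI50. Cells were seeded at 3000–5000 per well a day earlier; Ba/F3 medium contained IL-3; three repeats.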

With `C=CC(=O)Nc1cc(Nc2cc(N3OCC[C@@H]3c3cccc(C#N)c3)ncn2)c(OC)cc1N1CCC(N2CCN(C3COC3)CC2)CC1` [Example 196, N-(5-((6-((R)-3-(3-cyanophenyl)isoxazolidine-2-yl)pyrimidine-4-yl)amino)-4-methoxy-2-(4-(4-(oxetane-3-yl)piperazine-1-yl)piperidine-1-yl)phenyl)acrylamide], the “Ba/F3 (NPH) Activity” value was “A (GI50 < 50 nM)”.

With `C=CC(=O)Nc1cc(Nc2cc(N3OCC[C@@H]3c3cccc(Cl)c3Cl)ncn2)c(OC)cc1N1CCC(N2CCN(C(C)=O)CC2)CC1` [compound 608, N-(2-(4-(4-acetylpiperazine-1-yl)piperidine-1-yl)-5-((6-((R)-3-(2,3-dichlorophenyl)isoxazolidine-2-yl)pyrimidine-4-yl)amino)-4-methoxyphenyl) acrylamide], the “Ba/F3 (NPH) Activity” value is listed as “A (GI50 < 50 nM)”.

Take `C=CC(=O)Nc1cc(Nc2cc(N3OCC[C@@H]3Cc3cccc(F)c3)ncn2)c(OC)cc1N1CCC(N2CCOCC2)CC1` [compound 996, N-(5-((6-((S)-3-(3-fluorobenzyl)isoxazolidine-2-yl)pyrimidine-4-yl)amino)-4-methoxy-2-(4-morpholinopiperidine-1-yl)phenyl)acrylamide]: the “Ba/F3 (NPH) Activity” value is “A (GI50 < 50 nM)”.

As to `C=CC(=O)Nc1cc(Nc2cc(N3OCC[C@@H]3c3ccccc3)ncn2)c(OC)cc1N1CCC(N2C[C@@H](C)O[C@@H](C)C2)CC1` [Example 285, N-(2-(4-((2S,6R)-2,6-dimethylmorpholino)piperidine-1-yl)-4-methoxy-5-((6-((R)-3-phenylisoxazolidine-2-yl)pyrimidine-4-yl)amino)phenyl) acrylamide], the “Ba/F3 (NPH) Activity” value is given as “A (GI50 < 50 nM)”.

With `C=CC(=O)Nc1cc(Nc2cc(N3OCC[C@@H]3c3ccc(Cl)c(F)c3)ncn2)c(OC)cc1N1CCC(N2CCN(CC)CC2)CC1` [Example 262, N-(5-((6-((R)-3-(4-chloro-3-fluorophenyl)isoxazolidine-2-yl)pyrimidine-4-yl)amino)-2-(4-(4-ethylpiperazine-1-yl)piperidine-1-yl)-4-methoxyphenyl) acrylamide], the “Ba/F3 (NPH) Activity” value was “A (GI50 < 50 nM)”.

`C=CC(=O)Nc1cc(Nc2cc(N3OCC[C@@H]3c3ccc(F)c(F)c3)ncn2)c(OC)cc1N(C)CCN(C)C` [compound 457, N-(5-((6-((R)-3-(3,4-difluorophenyl)isoxazolidine-2-yl)pyrimidine-4-yl)amino)-2-((2-(dimethylamino)ethyl)(methyl)amino)-4-methoxyphenyl) acrylamide]: the “Ba/F3 (NPH) Activity” value is listed as “A (GI50 < 50 nM)”.

`C=CC(=O)Nc1cc(Nc2cc(N3OCC[C@@H]3c3ccc(Cl)c(Cl)c3)ncn2)c(OC)cc1N1C[C@@H]2C[C@H]1CN2C` [compound 684, N-(5-((6-((R)-3-(3,4-dichlorophenyl)isoxazolidine-2-yl)pyrimidine-4-yl)amino)-4-methoxy-2-((1S,4S)-5-methyl-2,5-diazabicyclo[2.2.1]heptane-2-yl)phenyl) acrylamide]: the “Ba/F3 (NPH) Activity” value is reported as “A (GI50 < 50 nM)”.

`C=CC(=O)Nc1cc(Nc2cc(N3OCC[C@@H]3c3ccccc3)ncn2)c(OC)cc1N1CCC(N2CCN(C(C)C)CC2)CC1` [Example 283, N-(2-(4-(4-isopropylpiperazine-1-yl)piperidine-1-yl)-4-methoxy-5-((6-((R)-3-phenylisoxazolidine-2-yl)pyrimidine-4-yl)amino)phenyl) acrylamide]: the “Ba/F3 (NPH) Activity” value is “A (GI50 < 50 nM)”.

As for `C=CC(=O)Nc1cc(Nc2cc(N3OCC[C@@H]3c3cccc(OC)c3)ncn2)c(OC)cc1N1CCN(C)CC1` [Example 25, N-(4-methoxy-5-((6-((R)-3-(3-methoxyphenyl)isoxazolidine-2-yl)pyrimidine-4-yl)amino)-2-(4-methylpiperazine-1-yl)phenyl) acrylamide], the “Ba/F3 (NPH) Activity” value was “B (50 nM ≤ GI50 < 500 nM)”.

With `C=CC(=O)Nc1cc(Nc2cc(N3OCC[C@@H]3c3cc(F)cc(F)c3)ncn2)c(OC)cc1N1C[C@@H]2CCN(C)[C@@H]2C1` [compound 891, N-(5-((6-((R)-3-(3,5-difluorophenyl)isoxazolidine-2-yl)pyrimidine-4-yl)amino)-4-methoxy-2-((3aS,6aS)-1-methylhexahydropyrrolo [3,4-b]pyrrole-5(1H)-yl)phenyl) acrylamide], the “Ba/F3 (NPH) Activity” value is listed as “A (GI50 < 50 nM)”.

Regarding `C=CC(=O)Nc1cc(Nc2cc(N3OCC[C@H]3Cc3cccnc3)ncn2)c(OC)cc1N1CCC(N2C[C@H]3C[C@@H]2CO3)CC1` [compound 990, N-(2-(4-((1R,4R)-2-oxa-5-azabicyclo [2.2.1]heptane-5-yl)piperidine-1-yl)-4-methoxy-5-((6-((R)-3-(pyridine-3-ylmethyl)isoxazolidine-2-yl)pyrimidine-4-yl)amino)phenyl)acrylamide], the “Ba/F3 (NPH) Activity” value is “B (50 nM ≤ GI50 < 500 nM)”.

Take `C=CC(=O)Nc1cc(Nc2cc(N3OCC[C@@H]3c3ccc(Cl)c(F)c3)ncn2)c(OC)cc1N1CCC(N2CCC(N(C)C)CC2)CC1` [compound 803, N-(5-((6-((R)-3-(4-chloro-3-fluorophenyl)isoxazolidine-2-yl)pyrimidine-4-yl)amino)-2-(4-(dimethylamino)-[1,4'-bipiperidine]-1'-yl)-4-methoxyphenyl) acrylamide]: the “Ba/F3 (NPH) Activity” value is “A (GI50 < 50 nM)”.

Regarding `C=CC(=O)Nc1cc(Nc2cc(N3OCC[C@@H]3c3cccc(Cl)c3C)ncn2)c(OC)cc1N1CCC(N2CCN(C(C)C)CC2)CC1` [compound 580, N-(5-((6-((R)-3-(3-chloro-2-methylphenyl)isoxazolidine-2-yl)pyrimidine-4-yl)amino)-2-(4-(4-isopropylpiperazine-1-yl)piperidine-1-yl)-4-methoxyphenyl) acrylamide], the “Ba/F3 (NPH) Activity” value is recorded as “A (GI50 < 50 nM)”.

`C=CC(=O)Nc1cc(Nc2cc(N3OCC[C@@H]3Cc3cccc(Cl)c3Cl)ncn2)c(OC)cc1N1CCN(C)CC1` [compound 983, N-(5-((6-((S)-3-(2,3-dichlorobenzyl)isoxazolidine-2-yl)pyrimidine-4-yl)amino)-4-methoxy-2-(4-methylpiperazine-1-yl)phenyl)acrylamide]: the “Ba/F3 (NPH) Activity” value is recorded as “A (GI50 < 50 nM)”.

`C=CC(=O)Nc1cc(Nc2cc(N3OCC[C@@H]3c3ccc(F)c(F)c3)ncn2)c(OC)cc1N1CCC(N2CCN(CC)CC2)CC1` [compound 545, N-(5-((6-((R)-3-(3,4-difluorophenyl)isoxazolidine-2-yl)pyrimidine-4-yl)amino)-2-(4-(4-ethylpiperazine-1-yl)piperidine-1-yl)-4-methoxyphenyl) acrylamide]: the “Ba/F3 (NPH) Activity” value is “A (GI50 < 50 nM)”.

For the molecule `C=CC(=O)Nc1cc(Nc2cc(N3OCC[C@H]3c3c(F)cccc3F)ncn2)c(OC)cc1N1CCC(N2CC[C@@H](N(C)C)C2)CC1` [compound 314, N-(5-((6-((S)-3-(2,6-difluorophenyl)isoxazolidine-2-yl)pyrimidine-4-yl)amino)-2-(4-((R)-3-(dimethylamino)pyrolidine-1-yl)piperidine-1-yl)-4-methoxyphenyl) acrylamide], the “Ba/F3 (NPH) Activity” value is reported as “C (500 nM ≤ GI50 < 5000 nM)”.

Take `C=CC(=O)Nc1cc(Nc2cc(N3OCC[C@@H]3c3ccc(C)nc3)ncn2)c(OC)cc1N1CCC(N2CCN(C(C)C)CC2)CC1` [Example 230, N-(2-(4-(4-isopropylpiperazine-1-yl)piperidine-1-yl)-4-methoxy-5-((6-((R)-3-(6-methylpyridine-3-yl)isoxazolidine-2-yl)pyrimidine-4-yl)amino)phenyl)acrylamide]: the “Ba/F3 (NPH) Activity” value is listed as “B (50 nM ≤ GI50 < 500 nM)”.

Turning to `C=CC(=O)Nc1cc(Nc2cc(N3OCC[C@@H]3c3cccc(Cl)c3Cl)ncn2)c(OC)cc1N1CCC(N2CCN(C3CC3)CC2)CC1` [Example 162, N-(2-(4-(4-cyclopropylpiperazine-1-yl)piperidine-1-yl)-5-((6-((R)-3-(2,3-dichlorophenyl)isoxazolidine-2-yl)pyrimidine-4-yl)amino)-4-methoxyphenyl) acrylamide], the “Ba/F3 (NPH) Activity” value was “A (GI50 < 50 nM)”.

Turning to `C=CC(=O)Nc1cc(Nc2cc(N3OCC[C@@H]3c3cccc(F)c3F)ncn2)c(OC)cc1N1CCO[C@H](C)C1` [compound 889, N-(5-((6-((R)-3-(2,3-difluorophenyl)isoxazolidine-2-yl)pyrimidine-4-yl)amino)-4-methoxy-2-((R)-2-methylmorpholino)phenyl)acrylamide], the “Ba/F3 (NPH) Activity” value is listed as “A (GI50 < 50 nM)”.

Take `C=CC(=O)Nc1cc(Nc2cc(N3OCC[C@@H]3c3cc(F)ccc3F)ncn2)c(OC)cc1N1CCC(N2CCC(F)(F)CC2)CC1` [compound 817, N-(2-(4,4-difluoro-[1,4'-bipiperidine]-1'-yl)-5-((6-((R)-3-(2,5-difluorophenyl)isoxazolidine-2-yl)pyrimidine-4-yl)amino)-4-methoxyphenyl) acrylamide]: the “Ba/F3 (NPH) Activity” value is recorded as “A (GI50 < 50 nM)”.

For `C=CC(=O)Nc1cc(Nc2cc(N3OCC[C@@H]3c3c(F)ccc(F)c3Cl)ncn2)c(OC)cc1N1CCC(N2C[C@H]3C[C@@H]2CO3)CC1` [compound 692, N-(2-(4-((1R,4R)-2-oxa-5-azabicyclo[2.2.1]heptane-5-yl)piperidine-1-yl)-5-((6-((R)-3-(2-chloro-3,6-difluorophenyl)isoxazolidine-2-yl)pyrimidine-4-yl)amino)-4-methoxyphenyl) acrylamide], the “Ba/F3 (NPH) Activity” value is reported as “A (GI50 < 50 nM)”.

`C=CC(=O)Nc1cc(Nc2cc(N3OCC[C@@H]3c3ccc(F)cc3F)ncn2)c(OC)cc1N1C[C@@H]2C[C@H]1CO2` [compound 324, N-(2-((1S,4S)-2-oxa-5-azabicyclo[2.2.1]heptane-5-yl)-5-((6-((R)-3-(2,4-difluorophenyl)isoxazolidine-2-yl)pyrimidine-4-yl)amino)-4-methoxyphenyl) acrylamide]: the “Ba/F3 (NPH) Activity” value was “A (GI50 < 50 nM)”.

Values taken from patent US12157730B2, “Heteroaryl derivative, method for producing same, and pharmaceutical composition comprising same as effective component” (VORONOI INC., priority 2019, dated 2024).
